pEC50: −log10 of the molar value.
What was measured:
[1] = Cytotoxicity assay in MT-4 cells; assay type: cell-based, human; settings: human, uninfected MT-4 cells, 5 days incubation; read-out: CC50
Procedure: Each plate contained up to 8 test compounds, with negative (No Drug Control) and 5 μM AZT positive controls. MT-4 cells were pre-infected with 10 μL of either RPMI (mock-infected) or a fresh 1:250 dilution of HIV-1 IIIB concentrated virus stock. Infected and uninfected MT-4 cells were further diluted in complete RPMI media and added to each plate using a Micro Flow dispenser. After 5 days incubation in a humidified and temperature controlled incubator (37° C.), Cell Titer Glo (Promega) was added to the assay plates and chemiluminescence read using an Envision plate-reader. […] Assays were performed as above except uninfected MT-4 cells were added to each well containing test compound. In addition, 10 μM puromycin was added to the last column of each assay plate to assess a base level of cytotoxicity.

HIV-1 (IIIB) = assay: Antiviral assay in MT-4 cells (HIV MT-4 antiviral assay); assay type: cell-based; settings: Human immunodeficiency virus 1, IIIB, MT4, 120 h, HIV-1 (IIIB) in MT-4 cells, 5 days incubation; read-out: EC50
Procedure: Compounds were tested in a high-throughput 384-well assay format for their ability to inhibit the replication of HIV-1 (IIIB) in MT-4 cells. Compounds were serially diluted (1:3) in DMSO on 384-well polypropylene plates and further diluted 200-fold into complete RPMI media (10% FBS, 1% P/S) using the Biotek Micro Flow and Labcyte ECHO acoustic dispenser. Each plate contained up to 8 test compounds, with negative (No Drug Control) and 5 μM AZT positive controls. MT-4 cells were pre-infected with 10 μL of either RPMI (mock-infected) or a fresh 1:250 dilution of HIV-1 IIIB concentrated virus stock. Infected and uninfected MT-4 cells were further diluted in complete RPMI media and added to each plate using a Micro Flow dispenser. After 5 days incubation in a humidified and temperature controlled incubator (37° C.), Cell Titer Glo (Promega) was added to the assay plates and chemiluminescence read using an Envision plate-reader.

pEC50 (HIV-1 (IIIB)) | Structure (SMILES) | CC50 at 5 days [1] [µM]
7.62 | O=C(NCc1ccc(F)cc1F)c1cn2c(c(O)c1=O)C(=O)N1CCc3cc(Cl)ccc3[C@H]2C1 [Example 140-1, (13S)-10-chloro-N-(2,4-difluorobenzyl)-4-hydroxy-3,5-dioxo-3,5,8,13-tetrahydro-7H-6,13-methanobenzo[g]pyrido[1,2-a][1,4]diazonine-2-carboxamide] | 14.6
7.40 | O=C(NCc1c(F)cc(F)cc1F)c1cn2c(c(O)c1=O)C(=O)N1CCc3cc(Cl)ccc3[C@H]2C1 [Example 136-1, (13S)-10-chloro-4-hydroxy-3,5-dioxo-N-(2,4,6-trifluorobenzyl)-3,5,8,13-tetrahydro-7H-6,13-methanobenzo[g]pyrido[1,2-a][1,4]diazonine-2-carboxamide] | 12.4
7.89 | O=C(NCc1cccc(Cl)c1F)c1cn2c(c(O)c1=O)C(=O)N1Cc3cc(F)c(F)cc3C[C@H]2C1 [Example 143-2, (6S)—N-(3-chloro-2-fluorobenzyl)-9,10-difluoro-1-hydroxy-2,14-dioxo-2,7,12,14-tetrahydro-6H-6,13-methanobenzo[f]pyrido[1,2-a][1,4]diazonine-3-carboxamide] | > 50
8.67 | CC1=CC[C@H]2CN(C1)C(=O)c1c(O)c(=O)c(C(=O)NCc3c(F)cc(F)cc3F)cn12 [Example 132-3, (7S)-12-hydroxy-4-methyl-1,11-dioxo-N-(2,4,6-trifluorobenzyl)-1,6,7,11-tetrahydro-3H-2,7-methanopyrido[1,2-a][1,4]diazonine-10-carboxamide] | 24.1
7.25 | O=C(NCc1ccc(F)cc1F)c1cn2c(c(O)c1=O)C(=O)N1CCc3cc(F)c(F)cc3[C@@H]2C1 (single isomer, unassigned) [Example 111-2] | 9.94
7.44 | O=C(NCc1ccc(F)cc1F)c1cn2c(c(O)c1=O)C(=O)N1C[C@@H]2CCc2cc(Cl)ccc21 [Example 49-1, (12S)-2-chloro-N-(2,4-difluorobenzyl)-7-hydroxy-6,8-dioxo-6,8,13,14-tetrahydro-12H-5,12-methanobenzo[e]pyrido[1,2-a][1,4]diazonine-9-carboxamide] | > 15.7
8.41 | O=C(NCc1ccc(F)cc1F)c1cn2c(c(O)c1=O)C(=O)N1CCCOCC2C1 (racemic) [rac-1, N-(2,4-Difluorobenzyl)-13-hydroxy-1,12-dioxo-1,4,5,7,8,12-hexahydro-3H-2,8-methanopyrido[1,2-d][1,4,7]oxadiazecine-11-carboxamide] | > 47.9
< 7.47 | O=C(NCc1c(F)cc(F)cc1F)c1cn2c(c(O)c1=O)C(=O)N1C[C@@H]2CCc2cc(Cl)ccc21 [Example 48-1, (12S)-2-chloro-7-hydroxy-6,8-dioxo-N-(2,4,6-trifluorobenzyl)-6,8,13,14-tetrahydro-12H-5,12-methanobenzo[e]pyrido[1,2-a][1,4]diazonine-9-carboxamide] | > 13.8
< 7.00 | CC(=O)N1CCN2CC(C1)n1cc(C(=O)NCc3ccc(F)cc3F)c(=O)c(O)c1C2=O (stereo not shown) [Example 31, 5-acetyl-N-(2,4-difluorobenzyl)-12-hydroxy-1,11-dioxo-1,4,5,6,7,11-hexahydro-3H-2,7-methanopyrido[1,2-a][1,4,7]triazonine-10-carboxamide] | > 50
7.63 | CO[C@H]1CC[C@H]2CN(C1)C(=O)c1c(O)c(=O)c(C(=O)NCc3c(F)cc(F)cc3F)cn12 [Example 91, (4S,7S)-12-hydroxy-4-methoxy-1,11-dioxo-N-(2,4,6-trifluorobenzyl)-1,4,5,6,7,11-hexahydro-3H-2,7-methanopyrido[1,2-a][1,4]diazonine-10-carboxamide] | > 50
7.57 | O=C(NCc1c(F)cc(F)cc1F)c1cn2c(c(O)c1=O)C(=O)N1C[C@H]2CCc2ccc(F)cc21 [Example 86-1, (12R)-3-fluoro-7-hydroxy-6,8-dioxo-N-(2,4,6-trifluorobenzyl)-6,8,13,14-tetrahydro-12H-5,12-methanobenzo[e]pyrido[1,2-a][1,4]diazonine-9-carboxamide] | > 30.3
8.23 | Cn1ncc2c1CC[C@H]1CN2C(=O)c2c(O)c(=O)c(C(=O)NCc3c(F)cc(F)cc3F)cn21 [Example 85-2, (11S)-6-hydroxy-1-methyl-5,7-dioxo-N-(2,4,6-trifluorobenzyl)-1,5,7,11,12,13-hexahydro-4,11-methanopyrazolo[4,3-e]pyrido[1,2-a][1,4]diazonine-8-carboxamide] | > 49.3
8.76 | Cn1ncc2c1C[C@H]1CN(C2)C(=O)c2c(O)c(=O)c(C(=O)NCc3c(F)cc(F)cc3F)cn21 [Example 87-2, (12S)-7-hydroxy-1-methyl-6,8-dioxo-N-(2,4,6-trifluorobenzyl)-1,4,6,8,12,13-hexahydro-5,12-methanopyrazolo[4,3-f]pyrido[1,2-a][1,4]diazonine-9-carboxamide] | > 50
8.82 | COC1CCCN2C[C@@H]1n1cc(C(=O)NCc3c(F)cc(F)cc3F)c(=O)c(O)c1C2=O (stereo partly drawn) [Example 99-1, (7S)-12-hydroxy-6-methoxy-1,11-dioxo-N-(2,4,6-trifluorobenzyl)-1,4,5,6,7,11-hexahydro-3H-2,7-methanopyrido[1,2-a][1,4]diazonine-10-carboxamide] | > 22.2
7.82 | C[C@]1(O)CCN2C[C@H](C1)n1cc(C(=O)NCc3c(F)cc(F)cc3F)c(=O)c(O)c1C2=O [Example 107-1, (5S,7S)-5,12-dihydroxy-5-methyl-1,11-dioxo-N-(2,4,6-trifluorobenzyl)-1,4,5,6,7,11-hexahydro-3H-2,7-methanopyrido[1,2-a][1,4]diazonine-10-carboxamide] | > 50
8.16 | O=C(NCc1ccc(F)cc1F)c1cn2c(c(O)c1=O)C(=O)N1CCNCC2C1 (stereo not shown) [Example 30, N-(2,4-difluorobenzyl)-12-hydroxy-1,11-dioxo-1,4,5,6,7,11-hexahydro-3H-2,7-methanopyrido[1,2-a][1,4,7]triazonine-10-carboxamide] | 1.66
7.04 | O=C(NCc1c(F)cc(F)cc1F)c1cn2c(c(O)c1=O)C(=O)N1C[C@@H]2CCc2cccc(F)c21 [Example 46-1, (12S)-4-fluoro-7-hydroxy-6,8-dioxo-N-(2,4,6-trifluorobenzyl)-6,8,13,14-tetrahydro-12H-5,12-methanobenzo[e]pyrido[1,2-a][1,4]diazonine-9-carboxamide] | 9.24
8.39 | O=C(NCc1ccc(F)cc1Cl)c1cn2c(c(O)c1=O)C(=O)N1CCCC[C@H]2C1 [Example 152, (7S)—N-(2-chloro-4-fluoro-benzyl)-12-hydroxy-1,11-dioxo-1,4,5,6,7,11-hexahydro-3H-2,7-methanopyrido[1,2-a][1,4]diazonine-10-carboxamide] | 12
8.55 | CC1CCN2C[C@H](C1)n1cc(C(=O)NCc3c(F)cc(F)cc3F)c(=O)c(O)c1C2=O (stereo partly drawn) [Example 124, (7S)-12-hydroxy-5-methyl-1,11-dioxo-N-(2,4,6-trifluorobenzyl)-1,4,5,6,7,11-hexahydro-3H-2,7-methanopyrido[1,2-a][1,4]diazonine-10-carboxamide] | 15.4
8.49 | O=C(NCc1ccccc1)c1cn2c(c(O)c1=O)C(=O)N1CCCC[C@H]2C1 [Example 167, (7S)—N-benzyl-12-hydroxy-1,11-dioxo-1,4,5,6,7,11-hexahydro-3H-2,7-methanopyrido[1,2-a][1,4]diazonine-10-carboxamide] | 18.7
